The source of these data is US20110256613A1, “Designer proton-channel transgenic algae for photobiological hydrogen production” (priority 2006, published 2011).

The structures appear in SMILES notation.

In data set [1] the test system is photosystem II (PSII) water-splitting complex in algal cells. Particulars: cited from earlier work.
Another data set has as its system photosystem II (PSII). Particulars: addition of HCO3− to HCO3−-depleted samples; cited from earlier work.
The next data set relates to algal H2 production. The data set can be described thus: Competitive inhibition of photosynthetic H2 production by O2. Type of data set: cell-based. The text has this:
(§1) (4). Competitive drainage of electrons by O2 in algal H2 production. We have recently discovered a new O2 sensitivity in algal H2 production that is distinct from the O2 sensitivity of hydrogenase per se. This O2 sensitivity is apparently linked to the photosynthetic H2 production pathway that is coupled to proton translocation across the thylakoid membrane. […] This inhibition is likely due to the background O2, which apparently serves as a terminal electron acceptor in competition with the H2-production pathway for photosynthetically generated electrons from water splitting. The Rubisco enzyme of the Calvin cycle is known to be also an oxygenase in addition to its carboxylase activity. […] That is, the drainage of electrons by O2 is likely to occur at the point of Rubisco, which is one of the key enzymes of the Calvin cycle. This competitive inhibition of H2 production by O2 is much more of a problem than the traditionally known O2 sensitivity of the hydrogenase per se. […] The competitive inhibition of H2 production by O2 is about 10 times more sensitive to O2 than the traditionally known O2 sensitivity of hydrogenase. The drainage of electrons by O2 in competition with the Fd/hydrogenase H2 production pathway is 10 time more sensitive to O2 than the O2 sensitivity of the hydrogenase. […]

The subject of another data set is algal hydrogenase. The data set can be described thus: O2 sensitivity of hydrogenase per se. Type of data set: biochemical.
Source text: as §1

Another data set relates to algal system. The data set can be described thus: Competitive inhibition of photosynthetic H2 production by CO2. Type of data set: cell-based. An excerpt: (2). Competitive inhibition of photosynthetic H2 production by CO2. […] This inhibition of H2 evolution by CO2 has been characterized in experimental studies at ORNL. […] Therefore, unless the alga is genetically reengineered to control the Calvin cycle activity, photosynthetic H2 production would require a nearly CO2-free environment.

Turning to `N#CC(C#N)=NNc1cccc(Cl)c1` [CCCP, carbonyl cyanide m-chlorophenylhydrazone], the “side effects on photosynthetic activity (ADRY effect)” value in data set [1] is listed as “undesirable side effects”.

Consider `O=C(O)O` [HCO3^−, Bicarbonate], for which the “stimulation of PSII electron-transport activity” value with photosystem II (PSII) is on record as 6- to 7 fold. In the case of `O=O` [O2], in the data set with algal H2 production (lowest inhibiting concentration), the “O2 concentration that inhibits photosynthetic H2 production” value is listed as 500-1000 ppm. Further, the “O2 sensitivity of competitive inhibition of H2 production relative to O2 sensitivity of hydrogenase” value in the data set with algal H2 production (ratio versus hydrogenase O2 sensitivity) is “about 10 times”. The “O2 concentration at which algal hydrogenase is still active” value in the data set with algal hydrogenase came out at 5000 ppm. As to `O=C=O` [CO2, carbon dioxide], the “steady-state H2 photoevolution after CO2 injection” value with algal system (injection of 58 ppm CO2) is given as “inhibited to nearly zero”. Moreover, in the data set with algal system (lowest concentration, H2 photoevolution), the “CO2 concentration to which the algal system is sensitive” value is 30 ppm.
